# Earlier results as cited in patent US20240307316A1, “ANTIOXIDANT AND OXYGEN-RELEASING LIGNIN COMPOSITES TO ACCELERATE WOUND HEALING” (Board of Supervisors of Louisiana State University and …, priority 2023, published 2024).
# Like-named read-outs stand apart in the source and are kept apart here.
# How the values were obtained:
# [1] = system: 3T3 FBs
SMILES,concentrations exhibiting cytotoxicity [1],solubility limit [µg/mL],solubility (at 20° C.) [µg/mL],solubility (at 18° C.) [µg/mL]
"[Ca+2].[O-][O-] [CaO2, Calcium peroxide]",higher than 10 mg/mL,1650,1650,
"[Mg+2].[O-][O-] [MgO2, magnesium peroxide]",,,,860
